Values belong to the compound of their own block, whether it stands above or below them.
Key:
[1] = tested on: MIA PaCa-2; experiment: Antiproliferative activity against human MIA PaCa-2 cells assessed as reduction in cell viability incubated for 72 hrs by MTT assay; format: functional, cell-based; settings: MIA PaCa-2, 72 h
[2] = tested on: A549; experiment: Antiproliferative activity against human A549 cells assessed as reduction in cell viability incubated for 72 hrs by MTT assay; format: functional, cell-based; settings: A549, 72 h
[3] = tested on: HT-29; experiment: Antiproliferative activity against human HT-29 cells assessed as reduction in cell viability incubated for 72 hrs by MTT assay; format: functional, cell-based; settings: HT-29, 72 h
[4] = tested on: A2058; experiment: Antiproliferative activity against human A2058 cells assessed as reduction in cell viability incubated for 72 hrs by MTT assay; format: functional, cell-based; settings: A2058, 72 h
[5] = tested on: Bel-7402; experiment: animal or person; settings: Mus musculus, Bel-7402, po, 504 h, read-out: TGI
[6] = target: T1, Lysine-specific histone demethylase 1A (Homo sapiens, UniProt O60341); experiment: Inhibition of human recombinant LSD1 incubated for 60 mins by fluorescence based analysis
[7] = target: T2, Amine oxidase [flavin-containing] A (Homo sapiens, UniProt P21397); experiment: Inhibition of MAO-A (unknown origin) measured by MAO-GloTM method
T2 sequence (P21397 whole entry): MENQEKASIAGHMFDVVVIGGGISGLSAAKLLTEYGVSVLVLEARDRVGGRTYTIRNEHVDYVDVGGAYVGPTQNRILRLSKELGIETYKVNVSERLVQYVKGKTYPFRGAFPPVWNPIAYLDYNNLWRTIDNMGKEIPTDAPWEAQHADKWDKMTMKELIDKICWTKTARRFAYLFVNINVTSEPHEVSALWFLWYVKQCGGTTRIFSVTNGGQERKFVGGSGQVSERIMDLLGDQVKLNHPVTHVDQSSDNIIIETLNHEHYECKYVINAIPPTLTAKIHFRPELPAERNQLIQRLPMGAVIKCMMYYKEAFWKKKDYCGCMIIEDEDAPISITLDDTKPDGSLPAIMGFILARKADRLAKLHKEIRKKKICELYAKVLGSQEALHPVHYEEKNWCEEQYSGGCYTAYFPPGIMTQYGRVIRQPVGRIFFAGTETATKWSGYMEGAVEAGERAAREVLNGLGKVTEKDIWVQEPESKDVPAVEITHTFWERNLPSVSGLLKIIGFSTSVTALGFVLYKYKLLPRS

[8] = target: T1, Lysine-specific histone demethylase 1A
[9] = tested on: NCI-H1975; experiment: cells; settings: Homo sapiens
[10] = target: Histone deacetylase 1 (Homo sapiens, UniProt Q13547); experiment: Inhibition of HDAC1 (unknown origin)
Chain of Histone deacetylase 1 (Q13547 whole entry): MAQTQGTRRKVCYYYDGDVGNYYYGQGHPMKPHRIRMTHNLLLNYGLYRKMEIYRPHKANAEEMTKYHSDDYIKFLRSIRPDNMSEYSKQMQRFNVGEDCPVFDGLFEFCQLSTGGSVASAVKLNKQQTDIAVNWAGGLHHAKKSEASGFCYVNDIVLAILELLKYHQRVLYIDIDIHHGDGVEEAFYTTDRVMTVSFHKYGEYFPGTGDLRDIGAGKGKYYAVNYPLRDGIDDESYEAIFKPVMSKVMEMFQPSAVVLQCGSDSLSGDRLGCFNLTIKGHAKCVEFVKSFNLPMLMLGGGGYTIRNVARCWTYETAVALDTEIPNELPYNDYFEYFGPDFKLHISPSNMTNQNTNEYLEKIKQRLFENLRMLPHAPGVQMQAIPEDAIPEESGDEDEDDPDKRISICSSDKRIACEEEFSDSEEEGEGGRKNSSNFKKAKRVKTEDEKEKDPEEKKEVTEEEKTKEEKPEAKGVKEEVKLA

IC50 [1]: 9.5 µM | IC50 [2]: 2.4 µM | IC50 [3]: 0.95 µM
SMILES: O=C(N/N=C/c1ccccc1O)c1cccc(Cl)c1
IC50 [4]: 6.5 µM

SMILES: COc1ccc(S(=O)(=O)N(CCSC(=S)N2CCN(C)CC2)c2cc(OC)c(OC)c(OC)c2)cc1
inhibition in vivo at 60 mg/kg [5]: 43%

SMILES: COC1=CC(=O)OC(/C=C/c2ccccc2)C1 (stereo unspecified)
IC50 [6]: 3.85 µM | IC50 [7]: 0.00129 µM

IC50 [8]: 1.7 µM
SMILES: O=C(O)c1ccc(CN2CCC(CN[C@@H]3C[C@H]3c3ccccc3)CC2)cc1 [GSK2879552]

IC50 [8]: 3.85 µM | IC50 [10]: 0.0425 µM
SMILES: NC1CC1c1ccc(NC(=O)CCC(=O)NCCCNCCCCNCCCNC(=O)c2ccc(NC(=O)CCCCCCC(=O)NO)cc2)cc1 (stereo unspecified)
